Experiments:
[1] = test system: SF-295; assay: Cytotoxicity against human SF295 cells assessed as growth inhibition at 10 uM after 48 hrs by SRB assay; type: functional; conditions: SF-295, 48 h, read-out: GI
[2] = test system: NCI-H23; assay: Cytotoxicity against human NCI-H23 cells assessed as growth inhibition at 10 uM after 48 hrs by SRB assay; type: functional; conditions: NCI-H23, 48 h, read-out: GI
[3] = test system: HCT-15; assay: Cytotoxicity against human HCT15 cells assessed as growth inhibition at 10 uM after 48 hrs by SRB assay; type: functional; conditions: HCT-15, 48 h, read-out: GI
[4] = test system: SK-MEL-28; assay: Cytotoxicity against human SK-MEL-28 cells assessed as growth inhibition at 10 uM after 48 hrs by SRB assay; type: functional; conditions: SK-MEL-28, 48 h, read-out: GI
[5] = test system: HOP-62; assay: Cytotoxicity against human HOP62 cells assessed as growth inhibition at 10 uM after 48 hrs by SRB assay; type: functional; conditions: HOP-62, 48 h, read-out: GI
[6] = test system: TK-10; assay: Cytotoxicity against human TK10 cells assessed as growth inhibition at 10 uM after 48 hrs by SRB assay; type: functional; conditions: TK-10, 48 h, read-out: GI
[7] = test system: LOX IMVI; assay: Cytotoxicity against human LOXIMVI cells assessed as growth inhibition at 10 uM after 48 hrs by SRB assay; type: functional; conditions: read-out: GI
[8] = test system: HL-60(TB); assay: Cytotoxicity against human HL-60(TB) cells assessed as growth inhibition at 10 uM after 48 hrs by SRB assay; type: functional; conditions: HL-60, 48 h, read-out: GI
[9] = test system: RXF 393; assay: Cytotoxicity against human RXF393 cells assessed as growth inhibition at 10 uM after 48 hrs by SRB assay; type: functional; conditions: RXF 393, 48 h, read-out: GI
[10] = test system: NCI-H522; assay: Cytotoxicity against human NCI-H522 cells assessed as growth inhibition at 10 uM after 48 hrs by SRB assay; type: functional; conditions: NCI-H522, 48 h, read-out: GI
[11] = test system: U-251; assay: Cytotoxicity against human U251 cells assessed as growth inhibition at 10 uM after 48 hrs by SRB assay; type: functional; conditions: U-251, 48 h, read-out: GI
[12] = test system: SR; assay: Cytotoxicity against human SR cells assessed as growth inhibition at 10 uM after 48 hrs by SRB assay; type: functional; conditions: read-out: GI
[13] = test system: SNB-19; assay: Cytotoxicity against human SNB19 cells assessed as growth inhibition at 10 uM after 48 hrs by SRB assay; type: functional; conditions: SNB-19, 48 h, read-out: GI
[14] = test system: UO-31; assay: Cytotoxicity against human UO31 cells assessed as growth inhibition at 10 uM after 48 hrs by SRB assay; type: functional; conditions: UO-31, 48 h, read-out: GI
[15] = test system: CAKI-1; assay: Cytotoxicity against human Caki1 cells assessed as growth inhibition at 10 uM after 48 hrs by SRB assay; type: functional; conditions: CAKI-1, 48 h, read-out: GI
[16] = test system: OVCAR-8; assay: Cytotoxicity against human OVCAR8 cells assessed as growth inhibition at 10 uM after 48 hrs by SRB assay; type: functional; conditions: OVCAR-8, 48 h, read-out: GI
[17] = test system: SF-268; assay: Cytotoxicity against human SF268 cells assessed as growth inhibition at 10 uM after 48 hrs by SRB assay; type: functional; conditions: SF-268, 48 h, read-out: GI
[18] = test system: BT-549; assay: Cytotoxicity against human BT549 cells assessed as growth inhibition at 10 uM after 48 hrs by SRB assay; type: functional; conditions: BT-549, 48 h, read-out: GI
[19] = test system: MOLT-4; assay: Cytotoxicity against human MOLT4 cells assessed as growth inhibition at 10 uM after 48 hrs by SRB assay; type: functional; conditions: MOLT-4, 48 h, read-out: GI
[20] = test system: NCI-H322M; assay: Cytotoxicity against human NCI-H322M cells assessed as growth inhibition at 10 uM after 48 hrs by SRB assay; type: functional; conditions: read-out: GI
[21] = test system: Hs-578T; assay: Cytotoxicity against human Hs578T cells assessed as growth inhibition at 10 uM after 48 hrs by SRB assay; type: functional; conditions: read-out: GI
[22] = test system: OVCAR-3; assay: Cytotoxicity against human OVCAR3 cells assessed as growth inhibition at 10 uM after 48 hrs by SRB assay; type: functional; conditions: OVCAR-3, 48 h, read-out: GI
[23] = test system: M14; assay: Cytotoxicity against human M14 cells assessed as growth inhibition at 10 uM after 48 hrs by SRB assay; type: functional; conditions: M14, 48 h, read-out: GI
[24] = test system: A498; assay: Cytotoxicity against human A498 cells assessed as growth inhibition at 10 uM after 48 hrs by SRB assay; type: functional; conditions: A498, 48 h, read-out: GI
[25] = test system: MCF7; assay: Cytotoxicity against human MCF7 cells assessed as growth inhibition at 10 uM after 48 hrs by SRB assay; type: functional; conditions: MCF7, 48 h, read-out: GI
[26] = test system: COLO 205; assay: Cytotoxicity against human COLO205 cells assessed as growth inhibition at 10 uM after 48 hrs by SRB assay; type: functional; conditions: COLO 205, 48 h, read-out: GI
[27] = test system: PC-3; assay: Cytotoxicity against human PC3 cells assessed as growth inhibition at 10 uM after 48 hrs by SRB assay; type: functional; conditions: PC-3, 48 h, read-out: GI
[28] = test system: UACC-257; assay: Cytotoxicity against human UACC257 cells assessed as growth inhibition at 10 uM after 48 hrs by SRB assay; type: functional; conditions: UACC-257, 48 h, read-out: GI
[29] = test system: Malme-3M; assay: Cytotoxicity against human MALME-3M cells assessed as growth inhibition at 10 uM after 48 hrs by SRB assay; type: functional; conditions: read-out: GI
[30] = test system: DU-145; assay: Cytotoxicity against human DU145 cells assessed as growth inhibition at 10 uM after 48 hrs by SRB assay; type: functional; conditions: DU-145, 48 h, read-out: GI
[31] = test system: NCI-H460; assay: Cytotoxicity against human NCI-H460 cells assessed as growth inhibition at 10 uM after 48 hrs by SRB assay; type: functional; conditions: NCI-H460, 48 h, read-out: GI
[32] = test system: CCRF-CEM; assay: Cytotoxicity against human CCRF-CEM cells assessed as growth inhibition at 10 uM after 48 hrs by SRB assay; type: functional; conditions: read-out: GI
[33] = test system: UACC-62; assay: Cytotoxicity against human UACC62 cells assessed as growth inhibition at 10 uM after 48 hrs by SRB assay; type: functional; conditions: UACC-62, 48 h, read-out: GI
[34] = test system: 786-0; assay: Cytotoxicity against human 786-0 cells assessed as growth inhibition at 10 uM after 48 hrs by SRB assay; type: functional; conditions: 786-0, 48 h, read-out: GI
[35] = test system: MDA-MB-468; assay: Cytotoxicity against human MDA-MB-468 cells assessed as growth inhibition at 10 uM after 48 hrs by SRB assay; type: functional; conditions: MDA-MB-468, 48 h, read-out: GI
[36] = test system: SF-539; assay: Cytotoxicity against human SF539 cells assessed as growth inhibition at 10 uM after 48 hrs by SRB assay; type: functional; conditions: SF-539, 48 h, read-out: GI
[37] = test system: SK-MEL-2; assay: Cytotoxicity against human SK-MEL-2 cells assessed as growth inhibition at 10 uM after 48 hrs by SRB assay; type: functional; conditions: SK-MEL-2, 48 h, read-out: GI
[38] = Partition coefficient, log P of the compound; type: physicochemical; conditions: octanol/water

**Q.** What does the source list for `O=C(Nc1ccccc1)Nc1ccc(OC2=NS(=O)(=O)c3ccccc32)cc1`?
**A.** inhibition of growth at 10 µM [1]: 32%; inhibition of growth at 10 µM [2]: 6%; inhibition of growth at 10 µM [3]: 48%; inhibition of growth at 10 µM [4]: -2%; inhibition of growth at 10 µM [5]: -11%; inhibition of growth at 10 µM [6]: -7%; inhibition of growth at 10 µM [7]: 49%; inhibition of growth at 10 µM [8]: 23%; inhibition of growth at 10 µM [9]: 5%; inhibition of growth at 10 µM [10]: 21%; inhibition of growth at 10 µM [11]: 21%; inhibition of growth at 10 µM [12]: 36%; inhibition of growth at 10 µM [13]: -1%; inhibition of growth at 10 µM [14]: 13%; inhibition of growth at 10 µM [15]: 25%; inhibition of growth at 10 µM [16]: 5%; inhibition of growth at 10 µM [17]: 6%; inhibition of growth at 10 µM [18]: 12%; inhibition of growth at 10 µM [19]: 32%; inhibition of growth at 10 µM [20]: 5%; inhibition of growth at 10 µM [21]: 13%; inhibition of growth at 10 µM [22]: -9%; inhibition of growth at 10 µM [23]: 42%; inhibition of growth at 10 µM [24]: 17%; inhibition of growth at 10 µM [25]: 17%; inhibition of growth at 10 µM [26]: -9%; inhibition of growth at 10 µM [27]: 11%; inhibition of growth at 10 µM [28]: -1%; inhibition of growth at 10 µM [29]: 21%; inhibition of growth at 10 µM [30]: 18%; inhibition of growth at 10 µM [31]: 21%; inhibition of growth at 10 µM [32]: 41%; inhibition of growth at 10 µM [33]: 21%; inhibition of growth at 10 µM [34]: 26%; inhibition of growth at 10 µM [35]: 20%; inhibition of growth at 10 µM [36]: 21%; inhibition of growth at 10 µM [37]: -2%; logP [38]: 2.89

Reference: ChEMBL document CHEMBL2331514, “Structure-based design and synthesis of novel pseudosaccharine derivatives as antiproliferative agents and kinase inhibitors” (Eur J Med Chem, 2013)
